{"source": "patent US20220290237A1", "about": "“METHOD FOR PREDICTING THE RESPONSE OF ANTIPSYCHOTIC DRUGS” (INSERM (INSTITUT NATIONAL DE LA SANTÉ ET DE LA RECHERCHE …, priority 2019, published 2022)", "key": {"[1]": {"assay": "Clinical response (total PANSS score change) over 4 weeks of amisulpride, OPTiMiSE first episode psychosis", "format": "in vivo, human", "source_text": "(§1) The cohort analysed in this study was obtained from the OPTiMiSE clinical trial (http://www.optimisetrial.eu) (29). After providing written informed consent, 491 patients with a first episode psychosis were included and 453 started medication. All patients were diagnosed with schizophrenia, schizophreniform disorder or schizoaffective disorder according to the Diagnostic and Statistical Manual of Mental Disorders, Fourth Edition (DSM-IV) and confirmed on the basis of the Mini International Neuropsychiatric Interview Plus (M.I.N.I. Plus) (30) (table 4). At baseline, patients were medication-naïve or minimally-treated (any antipsychotic medication used for […] 2 weeks in the previous year or for a total of 6 weeks in their lifetime) and were ill for no longer than 2 years. Only subjects involved in the single-treatment arm (phase 1) of the trial were considered for this study (29). All patients were treated for 4 weeks with amisulpride (200-800 mg/day orally). At the end of the 4-week treatment, the blood concentration of antipsychotic used has been determined. This measurement provided a reliable indication of the treatment compliance of individual patients.\nA clinical response to treatment can be defined according to many criteria. […] Note that good responders were slightly older than poor responders with a lower duration of untreated psychosis and more positive symptoms (data not shown)."}, "total RNA from PBMCs": {"test_system": "total RNA from PBMCs", "assay": "RNA-seq gene expression before and after 4 weeks of amisulpride treatment", "format": "in vivo, human", "conditions": "4 weeks amisulpride", "source_text": "as §1\nA DNase digestion procedure was added after extraction. Total RNA was purified using the RNA Clean & Concentrator™-5 kit following the manufacturer's instructions (Zymo Research Corp., Irvine, USA). RNA quantification was performed on a NanoDrop™ 8000 spectrophotometer, in duplicate. The quality and integrity of the RNA samples were assessed using an Agilent Bioanalyzer 2100 and the RNA6000 Nano Labchip kit (Agilent Technologies). Only samples with an RNA integrity number (RIN) higher than 7 were selected. Three hundred and seventy-six RNA samples fulfilled quality control criteria for RNA-seq analyses, corresponding to two RNA samples (one at inclusion and one after 4 weeks of treatment) for 188 subjects. Forty-eight additional RNAs were available for replication studies, in 24 independent subjects.\nAll libraries were prepared using the Illumina TruSeq Stranded Total RNA with Ribo-Zero Globin kit (Illumina Inc., San Diego, Calif., U.S.A.), which removes ribosomal RNA and globin mRNA. Libraries were prepared using one microgram of total RNA as initial input and following the standard protocols. After library quality control, 2×100 bp paired-end (PE) sequencing was performed on a HiSeq4000 system (Illumina), pooling a maximum of 6 samples on each lane, in order to reach 40 to 50 million of PE-reads for each sample. The Illumina pipeline was used to generate raw RNA sequencing data (fastq files) for each sample. Sequence quality controls were performed, using FastQC and in-house bioinformatics pipelines, from a sampling of 2×10 million reads in order to assess the levels of read duplicates, adapters, remaining rRNA and the GC content. Reads were trimmed for adapters and low-quality bases (Phred quality score <30) using Trimmomatic software (v.0.32). Reads were then mapped to the Genome Reference Consortium human genome assembly 37 (GRCh37) reference genome (hg19) using Tophat software (v.2.0.13). Read mapping quality was assessed using RNA-SeQC software. Then, gene-level quantification in read counts was performed by HTSeq software (v.0.6.1), using gene annotation from Ensembl v.86. All downstream analyses were conducted using the statistical software R (v.3.2.4) and Bioconductor R packages. Genes with counts-per million (cpm) below 1 in more than two third of the samples were considered unexpressed and removed from the analysis using edgeR package (v.3.12.1). Raw gene counts matrix has been normalized to account for differences in sequencing depth and RNA composition using the “median ratio” method implemented in the DESeq2 package (v.1.16.1). To avoid batch effects as confounding factors, all subjects had their 2 time-points in a same batch. […]"}, "[2]": {"conditions": "admixture model of total PANSS score change over 4 weeks of treatment, 200-800 mg/day orally"}, "[3]": {"conditions": "of 188 subjects, 4 weeks of treatment"}}, "data": [{"compound": "CCN1CCCC1CNC(=O)c1cc(S(=O)(=O)CC)c(N)cc1OC", "note": "(centres unmarked) [amisulpride, 4-amino-N-((1-ethyl-2-pyrrolidinyl)methyl)-5-(etgylsulfonyl)-2-methoxybenzamide]", "values": [{"measurement": "proportion of good responders", "setting": "[1]; [2]", "value": 56, "unit": "%"}, {"measurement": "proportion of poor responders", "setting": "[1]; [2]", "value": 44, "unit": "%"}, {"measurement": "mean reduction of total PANSS score", "setting": "[1]; good responders subpopulation of the admixture model, 4 weeks of treatment", "value": 36.3, "unit": "%"}, {"measurement": "patients with a less than 20% reduction in total PANSS score", "setting": "[1]; [3]", "value": 75, "unit": "patients"}, {"measurement": "patients with a more than 20% reduction in total PANSS score", "setting": "[1]; [3]", "value": 113, "unit": "patients"}, {"measurement": "mean PANSS total reduction", "setting": "[1]; poor responders subpopulation of the admixture model, 4 weeks of treatment", "value": 13.0, "unit": "%"}, {"measurement": "FC, fold-change at week 4 relative to the expression level at inclusion: AC073172.1", "setting": "total RNA from PBMCs; good responders (n = 113)", "value": 0.72}, {"measurement": "FC, fold-change at week 4 relative to the expression level at inclusion: AC073172.1", "setting": "total RNA from PBMCs; poor responders (n = 75)", "value": 0.97}, {"measurement": "FC, fold-change at week 4 relative to the expression level at inclusion: AC092171.4", "setting": "total RNA from PBMCs; good responders (n = 113)", "value": 0.85}, {"measurement": "FC, fold-change at week 4 relative to the expression level at inclusion: AC092171.4", "setting": "total RNA from PBMCs; poor responders (n = 75)", "value": 1.06}, {"measurement": "FC, fold-change at week 4 relative to the expression level at inclusion: AC132872.1", "setting": "total RNA from PBMCs; good responders (n = 113)", "value": 0.81}, {"measurement": "FC, fold-change at week 4 relative to the expression level at inclusion: AC132872.1", "setting": "total RNA from PBMCs; poor responders (n = 75)", "value": 1.05}, {"measurement": "FC, fold-change at week 4 relative to the expression level at inclusion: ACSL5", "setting": "total RNA from PBMCs; good responders (n = 113)", "value": 1.06}, {"measurement": "FC, fold-change at week 4 relative to the expression level at inclusion: ACSL5", "setting": "total RNA from PBMCs; poor responders (n = 75)", "value": 0.99}, {"measurement": "FC, fold-change at week 4 relative to the expression level at inclusion: AL133351.4", "setting": "total RNA from PBMCs; good responders (n = 113)", "value": 0.88}, {"measurement": "FC, fold-change at week 4 relative to the expression level at inclusion: AL133351.4", "setting": "total RNA from PBMCs; poor responders (n = 75)", "value": 1.04}, {"measurement": "FC, fold-change at week 4 relative to the expression level at inclusion: AL391832.3", "setting": "total RNA from PBMCs; good responders (n = 113)", "value": 0.88}, {"measurement": "FC, fold-change at week 4 relative to the expression level at inclusion: AL391832.3", "setting": "total RNA from PBMCs; poor responders (n = 75)", "value": 1.00}, {"measurement": "FC, fold-change at week 4 relative to the expression level at inclusion: ALG1L13P", "setting": "total RNA from PBMCs; good responders (n = 113)", "value": 0.89}, {"measurement": "FC, fold-change at week 4 relative to the expression level at inclusion: ALG1L13P", "setting": "total RNA from PBMCs; poor responders (n = 75)", "value": 1.02}, {"measurement": "FC, fold-change at week 4 relative to the expression level at inclusion: ALPL", "setting": "total RNA from PBMCs; good responders (n = 113)", "value": 0.79}, {"measurement": "FC, fold-change at week 4 relative to the expression level at inclusion: ALPL", "setting": "total RNA from PBMCs; poor responders (n = 75)", "value": 1.09}, {"measurement": "FC, fold-change at week 4 relative to the expression level at inclusion: AP000640.1", "setting": "total RNA from PBMCs; good responders (n = 113)", "value": 0.84}, {"measurement": "FC, fold-change at week 4 relative to the expression level at inclusion: AP000640.1", "setting": "total RNA from PBMCs; poor responders (n = 75)", "value": 1.00}, {"measurement": "FC, fold-change at week 4 relative to the expression level at inclusion: C15orf54", "setting": "total RNA from PBMCs; good responders (n = 113)", "value": 1.18}, {"measurement": "FC, fold-change at week 4 relative to the expression level at inclusion: C15orf54", "setting": "total RNA from PBMCs; poor responders (n = 75)", "value": 1.07}, {"measurement": "FC, fold-change at week 4 relative to the expression level at inclusion: CA4", "setting": "total RNA from PBMCs; good responders (n = 113)", "value": 0.76}, {"measurement": "FC, fold-change at week 4 relative to the expression level at inclusion: CA4", "setting": "total RNA from PBMCs; poor responders (n = 75)", "value": 1.07}, {"measurement": "FC, fold-change at week 4 relative to the expression level at inclusion: CXCR6", "setting": "total RNA from PBMCs; good responders (n = 113)", "value": 1.14}, {"measurement": "FC, fold-change at week 4 relative to the expression level at inclusion: CXCR6", "setting": "total RNA from PBMCs; poor responders (n = 75)", "value": 1.03}, {"measurement": "FC, fold-change at week 4 relative to the expression level at inclusion: CYSLTR2", "setting": "total RNA from PBMCs; good responders (n = 113)", "value": 1.13}, {"measurement": "FC, fold-change at week 4 relative to the expression level at inclusion: CYSLTR2", "setting": "total RNA from PBMCs; poor responders (n = 75)", "value": 1.01}, {"measurement": "FC, fold-change at week 4 relative to the expression level at inclusion: DGAT2", "setting": "total RNA from PBMCs; good responders (n = 113)", "value": 0.87}, {"measurement": "FC, fold-change at week 4 relative to the expression level at inclusion: DGAT2", "setting": "total RNA from PBMCs; poor responders (n = 75)", "value": 1.08}, {"measurement": "FC, fold-change at week 4 relative to the expression level at inclusion: DHRS13", "setting": "total RNA from PBMCs; DHRS13, good responders (n = 113)", "value": 0.87}]}]}
